Like-named read-outs stand apart in the source and are kept apart here.
What was measured:
Assay in all cases: IncuCyte Kinetic Caspase-3/7 Apoptosis Assay
Format in all cases: cell-based
Details in all cases: Homo sapiens, read-out: Compound 1-induced Apoptosis EC50
MV-4-11 = tested on: MV-4-11
Text: (§1) Methods. Acute Myeloid Leukemia Cell Line Panel: Human AML cell lines, AML-193, F36-P, GDM-1, HL-60, HNT-34, Kasumi-1, Kasumi-3, KG-1, KG-1a, ML-2, MOLM-13, MUTZ-8, MV-4-11, NOMO-1, OCI-AML2, OCI-AML3, SIG-M5, TF-1, THP-1, and UT-7 were obtained from American Type Culture Collection (ATCC; Manassas, Va.) and Deutsche Sammlung von Mikroorganismen und Zellkulturen (DSMZ) (Germany) cell banks. The AML panel includes cell line(s) from each FAB classification (M0-M7) (Table 7).
(§2) Cell Culture Conditions: Cell lines were maintained in growth media containing 20% fetal bovine serum (FBS) (Hyclone Cat no. SH30910.03, Lot no. AZF188864; Corning REFno. 35-010-CV, Lot no. 35010124) supplemented with or without 10 ng/mL human recombinant granulocyte-macrophage colony stimulating factor (Sigma-Aldrich Cat no. SRP3050) (Table 8). Medium was purchased from ATCC (Cat no. 30-2001, 30-2002, 30-2003, 30-2005) and Gibco (REF no. 12561-056). Human recombinant granulocyte macrophage colony stimulating factor (GM-CSF) was expressed in Escherichia coli. The cell doubling times for each cell line were provided by ATCC and DSMZ. Cells were maintained in humidified incubators at 5% carbon dioxide (CO2). All cell lines were acclimated to Eagle's minimal essential medium (EMEM)+20% FBS with or without GM-CSF over 2 to 4 weeks prior to live cell imaging using IncuCyte Zoom (Essen Biosciences). The use of EMEM was necessary to eliminate background fluorescence caused by riboflavin in most media.
(§3) Incubation of Cell Cultures with Compound 1: Compound 1 was provided for studies by Celgene chemistry group at a stock concentration of 30 mM in 20 μL dimethyl sulfoxide (DMSO) frozen. Costar 96-well cell culture plates (Corning Cat no. 3595) were coated with 100 μL of 10 µg/mL fibronectin (Sigma-Aldrich Cat no. F1141) for 4 hours at 37° C. and immediately used or refrigerated overnight for later use. Cells (3000 to 6000 cells) were plated in growth medi in fibronectin-coated 96-well plates and incubated for a minimum of a few hours to overnight. Cells were incubated with a 12-point concentration response in triplicate with Compound 1 ([…]) including DMSO and Media controls. A 3-fold serial dilution of Compound 1 starting from a concentration of 200 μM in 0.6% DMSO (diluted in Media) was performed. For most sensitive cell lines, a 3-fold serial dilution of Compound 1 starting from a concentration of 20 μM in 0.6% DMSO (diluted in media) was performed. A volume of 5 μL or 10 μL for each dilution was added to 100 μL or 200 μL cells, respectively (0.3% DMSO final) and incubated for live cell imaging.
(§4) Live Cell Imaging on IncuCyte Zoom: Following incubation of cells with Compound 1, diluted Caspase 3/7 reagent (Essen Biosciences Cat no. 4440) is added to each well. The Caspase-3/7 reagent couples the activated caspase-3/7 recognition motif (DEVD) to NucView™488, a DNA intercalating dye. The cleavage of substrate by activated caspase-3/7 results in the release of the DNA dye and green fluorescent staining of nuclear DNA. This allows imaging of cells undergoing caspase-3/7 mediated apoptosis over time. Caspase-3/7 activation was quantified using the IncuCyte™ ZOOM basic analyzer. Red-labeled cell lines were also imaged over time using the IncuCyte™ ZOOM basic analyzer, for determination of both cell doubling time and Compound 1 effect on cell viability. Experiments were performed at least two times in each cell line.
(§5) Next, a 4 parameter log-logistic model was used to determine relative EC50 at each time point by the ‘drm’ function from the R ‘drc’ package (Ritz C, Streibig J C. Bioassay Analysis using R. J. Statist. Software 2005; 12(5):1-22). Goodness of fit was measured by R squared (coefficient of determination or the amount of variation explained by the model fit) of ≥80%, and EC50 parameter was assessed by having a ratio of standard error to the parameter of ≤40%, and the presence of at least one concentration point above and below the reported EC50. […]

HNT-34 = tested on: HNT-34
Text: as §1, §2, §3, §4, §5

F36-P = tested on: F36-P
Text: as §1, §2, §3, §4, §5

ML-2 = tested on: ML-2
Text: as §1, §2, §3, §4, §5

MOLM-13 = tested on: MOLM-13
Text: as §1, §2, §3, §4, §5

GDM-1 = tested on: GDM-1
Text: as §1, §2, §3, §4, §5

Kasumi-1 = tested on: Kasumi-1
Text: as §1, §2, §3, §4, §5

Nomo-1 = tested on: Nomo-1
Text: as §1, §2, §3, §4, §5

`O=C1CCC(N2Cc3cc(CNC(=O)C(F)(F)c4ccc(Cl)cc4)ccc3C2=O)C(=O)N1` (centres unmarked) [Compound 1, 2-(4-chlorophenyl)-N-((2-(2,6-dioxopiperidin-3-yl)-1-oxoisoindolin-5-yl)methyl)-2,2-difluoroacetamide] gave an EC50 (MV-4-11; MV4-11, 12 hr) of 227 nM, an EC50 (MV-4-11; MV4-11, 24 hr) of 167 nM and an EC50 (MV-4-11; MV4-11, 48 hr) of 32 nM. The EC50 (MV-4-11; MV4-11, 72 hr) was 16 nM, the EC50 (MV-4-11; MV4-11, 96 hr) was 17 nM and the EC50 (HNT-34; 24 hr) was 7 nM. It also gave an EC50 (HNT-34; 48 hr) of 4 nM, an EC50 (HNT-34; 96 hr) of 2 nM and an EC50 (F36-P; 48 hr) of 335 nM. For the same compound, the EC50 (F36-P; 72 hr) was 252 nM, the EC50 (F36-P; 96 hr) was 229 nM and the EC50 (ML-2; 12 hr) was 179 nM. It also gave an EC50 (ML-2; 24 hr) of 62 nM, an EC50 (ML-2; 48 hr) of 31 nM and an EC50 (ML-2; 72 hr) of 21 nM. The EC50 (ML-2; 96 hr) was 25 nM, the EC50 (MOLM-13; 24 hr) was 916 nM and the EC50 (MOLM-13; 48 hr) was 368 nM. The EC50 (MOLM-13; 72 hr) was 156 nM, the EC50 (MOLM-13; 96 hr) was 79 nM and the EC50 (GDM-1; 12 hr) was 110 nM. It also gave an EC50 (GDM-1; 24 hr) of 313 nM, an EC50 (GDM-1; 48 hr) of 49 nM and an EC50 (GDM-1; 72 hr) of 33 nM. For the same compound, the EC50 (GDM-1; 96 hr) was 25 nM, the EC50 (Kasumi-1; 48 hr) was 124 nM and the EC50 (Kasumi-1; 72 hr) was 254 nM. For the same compound, the EC50 (Kasumi-1; 96 hr) was 55 nM, the EC50 (Nomo-1; 24 hr) was 63 nM and the EC50 (Nomo-1; 48 hr) was 133 nM. For the same compound, the EC50 (Nomo-1; 72 hr) was 84 nM and the EC50 (Nomo-1; 96 hr) was 66 nM.
